Assay results reported in patent US8986731B2, “Pegylated liposomal formulations of hydrophobic photosensitizers for photodynamic therapy” (Biolitec Pharma Marketing Ltd, priority 2003, dated 2015).

Experiment: Pharmacokinetic properties in HT29 tumour-bearing mice (HPLC of plasma and tissues; tolerability of injection)
Type: in vivo, athymic NMRI nu/nu mice
Conditions: lateral tail vein injection, 50 μL
Protocol: HT 29 human colorectal carcinoma cells are used. Six to eight weeks old adult female athymic NMRI nu/nu mice (Taconic M&B, Denmark) weighting 22-24 g were inoculated subcutaneously in the left hind thigh with 0.1 ml of 8×10^7 HT29 human colorectal carcinoma cells/ml in 5% glucose. Two to three weeks later, as the tumor reached a surface diameter of 7-8 mm, and a thickness of 2-3 mm in height, 50 μL of Temoporfin (0.2 mg/kg) diluted in ethanol or 50 μL pegylated liposomal formulation of mTHPC (0.04 mg/ml) were injected into lateral tail vein. Following the drug injection animals were held under normal animal house lighting conditions (average illumination of 200 Lux, maximum 600 Lux of fluorescent tube light, with no exposure to sunlight or daylight). No photo-reaction was observed during this period. […] The fluorescence wave length was set at 410 nm for excitation and 653 nm for emission. The tissue concentration of mTHPC was calculated from a calibration curve constructed by plotting the peak height values of mTHPC standard solutions versus their concentrations.

With `Oc1cccc(-c2c3nc(c(-c4cccc(O)c4)c4ccc([nH]4)c(-c4cccc(O)c4)c4nc(c(-c5cccc(O)c5)c5ccc2[nH]5)CC4)C=C3)c1` [Temoporfin] the “Adverse effects during or immediately after injection” value was “No adverse effects”.
